Experiment: method code SF-AS, from DOI: 10.1515/znb-1972-0211, PMID: 4401834
Settings: pH 7.0

Row | Compound | logD
1 | COC(=O)/C(C#N)=N\Nc1ccc(SC(F)(F)F)cc1 | 4.27
2 | CCOC(=O)C(C#N)=NNc1cc(C(F)(F)F)ccc1Cl | 4.45
3 | CC(C)(C)C(=O)C(C#N)=NNc1ccc(Cl)cc1C(F)(F)F | 5.67
4 | COC(=O)C(C#N)=NNc1ccccc1 | 2.59
5 | CC(=O)C(C#N)=NNc1ccc(Cl)c(Cl)c1 | 4.56
6 | CCOC(=O)/C(C#N)=N\Nc1cccc(Cl)c1 | 3.94
7 | COC(=O)/C(C#N)=N\Nc1cc(Cl)cc(Cl)c1 | 4.5
8 | CC(=O)C(C#N)=NNc1ccc(Cl)cc1C | 4.28
9 | CC(=O)C(C#N)=NNc1ccc(Cl)cc1 | 4.13
10 | Cc1cc(Cl)ccc1NN=C(C#N)C(=O)C(C)(C)C | 4.31
11 | CC(=O)C(C#N)=NNc1cccc(Cl)c1 | 3.91
12 | CC(=O)C(C#N)=NNc1ccc2c(c1)OC(F)(F)C(F)(F)O2 | 5.31
13 | COC(=O)/C(C#N)=N\Nc1cc(C(F)(F)F)cc(C(F)(F)F)c1 | 5.02
14 | COC(=O)/C(C#N)=N\Nc1cccc(Cl)c1 | 3.56
15 | CC(=O)C(C#N)=NNc1ccc(SC(F)(F)F)cc1 | 5.04
16 | CC(C)(C)C(=O)C(C#N)=NNc1cc(Cl)c(Cl)cc1Cl | 5.86
17 | COC(=O)/C(C#N)=N\Nc1cc(Cl)c(Cl)c(Cl)c1 | 5.22
18 | CCS(=O)(=O)c1ccc(C(F)(F)F)cc1NN=C(C#N)C(C)=O | 4.22
19 | COC(=O)C(C#N)=NNc1ccc2c(c1)OC(F)(F)C(F)(F)O2 | 4.86
20 | CC(=O)C(C#N)=NNc1ccccc1Cl | 4.01
21 | CC(=O)C(C#N)=NNc1cc(Cl)cc(Cl)c1 | 4.68
22 | CCOC(=O)C(C#N)=NNc1ccccc1Cl | 3.38

Other lines, results leading:

Row | logD | Compound
23 | 4.22 | COC(=O)C(C#N)=NNc1ccc(S(=O)(=O)C(F)(F)F)cc1
24 | 4.42 | COC(=O)C(C#N)=NNc1cc(C(F)(F)F)ccc1Cl
25 | 3.79 | COC(=O)C(C#N)=NNc1ccc(C(F)(F)F)cc1
26 | 5.03 | CCOC(=O)C(C#N)=NNc1cc(Cl)c(Cl)c(Cl)c1
27 | 5.21 | CCOC(=O)/C(C#N)=N\Nc1cc(Cl)c(Cl)cc1Cl
28 | 3.78 | COC(=O)C(C#N)=NNc1cccc(C(F)(F)F)c1
29 | 4.86 | CCOC(=O)/C(C#N)=N\Nc1ccc(Cl)c(C(F)(F)F)c1
30 | 3.82 | CCOC(=O)/C(C#N)=N\Nc1cc(Cl)cc(Cl)c1
31 | 2.81 | COC(=O)C(C#N)=NNc1cc(C#N)ccc1C#N
32 | 4.96 | CC(C)(C)C(=O)C(C#N)=NNc1ccc2c(c1)OC(F)(F)C(F)(F)O2
33 | 3.72 | COC(=O)C(C#N)=NNc1ccccc1C(F)(F)F
34 | 4.62 | CC(C)(C)C(=O)C(C#N)=NNc1cccc(Cl)c1
35 | 5.44 | CC(C)(C)C(=O)C(C#N)=NNc1cc(C(F)(F)F)cc(C(F)(F)F)c1

Experiment: method code SF, from DOI: 10.1515/znb-1972-0211, PMID: 4401834
Settings: pH 7.0

Row | Compound | logD
36 | COC(=O)/C(C#N)=N\Nc1cc(Cl)c(Cl)cc1Cl | 5.15
